Where two headings read alike, the source gives them in different places.

Test [1] has as its system cutaneous leishmaniasis lesion. Briefly: golden hamster model for cutaneous leishmaniasis. Format: in vivo. As to conditions: topical application in aqueous buffer (neutral pH) daily for ten days. Here is the method: It was decided then to carry out a preliminary in vivo animal study according to standard practices using the golden hamster model for cutaneous leishmaniasis, using the compounds with the better profile as therapeutic agents against leishmaniasis. For that purpose the in vivo effectiveness of compounds 3b, 13b and 14c were tested FIG. 6.
It was decided then to carry out a small in vivo animal study according to standard practices using the golden hamster model for cutaneous leishmaniasis. For that purpose the in vivo effectiveness of compounds 3b, 13b and 14c were tested. Treatment consisted of a topical application of the compound suspended in an aqueous buffer (neutral pH) daily for ten days.

In test [2] the test system is axenic amastigotes of L. (V) panamensis. Briefly: in vitro effectiveness against axenic amastigotes of L. (V) panamensis. In kind it is cell-based. From the text:
Then, a series of compounds analogous to compound 3 (characterized by a tail G being a diarylalkenyl moiety) were synthesized in order to assess their in vitro effectiveness against L. (V) panamensis, a pathogenic species which causes human mucocutaneous leishmaniasis. Other halogenated analogs of choline were also synthesized and included in this in vitro effectiveness study. FIG. 2 illustrates the compounds evaluated for their in vitro effectiveness against axenic amastigotes of L. (V) panamensis.
The table shown in FIG. 7 contains the EC50 values (molar amount of compound that kills 50% of parasites in sample) obtained against axenic amastigotes of L. (V) panamensis. […] N-(HALOMETHYL) AMMONIUM SALTS AS […] AGENTS were compared with the respective non-halogenated (i.e. N,N,N-trimethyl quaternary ammonium salts) and with two compounds commonly used to treat leishmaniasis (meglumine antimoniate and amphotericin B).

In test [3] the test system is choline kinase of L. (L) infantum. The test can be described thus: kinetic studies with choline kinase. In kind it is biochemical. To be noted: lowering its catalytic efficiency. The text has this: (§1) Phosphatidyl choline can be synthesized by the parasite following the traditional Kennedy pathway (Zhang and Beverley, 2010), in which choline is converted to phosphatidyl choline via a sequence of steps, each catalyzed by a specific enzyme. The first step involves the phosphorylation of choline with the enzyme choline kinase.

In test [4] the test system is promastigotes of L. tarentolae. The test can be described thus: in vitro uptake of choline by promastigotes. In kind it is cell-based.
Source text: as §1

Test [5] has as its system promastigotes of L. tarentolae. Briefly: in vitro production of phosphatidyl choline by parasites. Format: cell-based.
Source text: as §1

In test [6] the test system is amastigotes of L. (V) panamensis that have infected macrophage cells. Briefly: in vitro effectiveness against L. (V) panamensis amastigotes that have infected macrophage cells. In kind it is cell-based. Here is the method:
Given that Leishmania parasites are known to infect monocyte cells, mostly macrophages and neutrophils, the in vitro effectiveness of some of the compounds was also tested on L. (V) panamensis in the amastigote stage that have been set to infect macrophage cells. FIG. 5 contains the list of compounds evaluated.
On the other hand, the results of the in vitro activity study of some […] N-(HALOMETHYL) AMMONIUM SALTS AS […] AGENTS shown in FIG. 5 against infected macrophage cells with Leishmania panamesis are shown in FIG. 8.

For a further test, the system named is Indian visceral disease. To be noted: cited from earlier work.
Another test deals with Chagas disease. To be noted: given soon after infection at the onset of the acute phase; cited from earlier work.
The next test relates to L. major promastigotes. To be noted: cited from earlier work.

As for `C[N+](C)(CCl)CCC=C(c1ccccc1)c1ccccc1` [Compound 13b], the cure of animals result in test [1] is “cure of the majority of the animals”.
Consider `C[N+](C)(CI)CCCCC=C(c1ccccc1)c1ccccc1` [Compound 14a], for which the “relative effectiveness against axenic amastigotes of L. (V) panamensis” value in [2] (FIG. 7) is listed as “the most effective”. In [3], the “inhibition of choline kinase” value is “able to inhibit this enzyme”. For the same compound, the “uptake of choline by promastigotes” value in test [4] is “interferes with the in vitro uptake of choline”. Further, the “production of phosphatidyl choline” value in test [5] was “inhibits the in vitro production of phosphatidyl choline”.
Take `C[C@@H]1[C@H](O)[C@@H](C)/C=C/C=C/C=C/C=C/C=C/C=C/C=C/[C@H](O[C@@H]2O[C@H](C)[C@@H](O)[C@H](N)[C@@H]2O)C[C@@H]2O[C@](O)(C[C@@H](O)C[C@@H](O)[C@H](O)CC[C@@H](O)C[C@@H](O)CC(=O)O[C@H]1C)C[C@H](O)[C@H]2C(=O)O` [amphotericin B]: the response in test [2] was half-maximal at 0.041 ± 0.001 µM (EC50). Moreover, the “EC50 against infected macrophage cells with L. (V) panamensis” value in [6] came out at 0.05 ± 0.001 µg/mL. In addition, the “effective against the Indian visceral disease” value was 90% with Indian visceral disease (dose of 5-10 mg/kg) and 100% in the test on Indian visceral disease (total dose of 15 mg/kg body weight).
Take `O=C(Cn1ccnc1[N+](=O)[O-])NCc1ccccc1` [benznidazole]: in the test on Chagas disease, the “effective in curing the disease” value is approximately 100%.
For `CCCCCCCCCCCC[N+](C)(C)C.[Br-]` [dodecyltrimethyl ammonium bromide], in the test with L. major promastigotes, the “growth of L. major promastigotes” value is “inhibit the growth”.
For the compound `CCCCCCCCCCCCCCCCCC[N+](C)(C)C.[Br-]` [octadecyltrimethyl ammonium bromide], the “growth of L. major promastigotes” value in the test with L. major promastigotes is on record as “inhibit the growth”.
Consider meglumine antimoniate, for which it took 312 ± 18.6 µM to reach a half-maximal effect in test [2] (EC50). For the same compound, the “EC50 against infected macrophage cells with L. (V) panamensis” value in test [6] came out at 6.33 ± 0.86 µg/mL.

Source of the values: patent US9145352B2, “Quaternary N-(halomethyl) ammonium salts as therapeutic agents” (UNIVERSIDAD DE CALDAS, priority 2012, dated 2015).
